Data published in ChEMBL document CHEMBL5385865, “Discovery and optimization of 2-(trifluoromethyl)benzimidazole derivatives as novel ferroptosis inducers in vitro and in vivo” (Eur J Med Chem, 2023).
pIC50: −log10 of the molar value. Calls of active or inactive are those of the source. The calls are words filed in the database; no cut-off is given here.

Columns and labels:
[1] = test system: HT-1080; assay: Lethality in human HT-1080 cells assessed as inhibition of cell viability incubated for 24 hrs by MTT assay; type: functional, cell-based; conditions: HT-1080, 24 h
[2] = Metabolic stability in human liver microsomes assessed as intrinsic clearance measured per mg protein at 1 uM in presence of NADPH by LC-MS analysis; type: ADME, Microsome; conditions: read-out: CLH
[3] = Metabolic stability in human liver microsomes assessed as half life at 1 uM in presence of NADPH by LC-MS analysis; type: ADME, Microsome
[4] = Metabolic stability in […] rat microsomes assessed as half life at 1 uM in presence of NADPH by LC-MS analysis; type: ADME, Liver, Microsome
[5] = Metabolic stability in rat liver microsomes assessed as intrinsic clearance measured per mg protein at 1 uM in presence of NADPH by LC-MS analysis; type: ADME, Microsome; conditions: read-out: CLH
[6] = test system: HT-1080; assay: Lethality in human HT-1080 cells assessed as cell survival at 10 uM incubated for 24 hrs by MTT assay relative to control; type: functional; conditions: read-out: Activity
[7] = biological target: T1, Cystine/glutamate transporter (Homo sapiens) (UniProt Q9UPY5); assay: Inhibition of Xc- in human HT-1080 cells assessed as decrease in glutamate release at 5 uM incubated for 3 hrs by Amplex red assay; type: cell-based
T1 sequence (whole entry): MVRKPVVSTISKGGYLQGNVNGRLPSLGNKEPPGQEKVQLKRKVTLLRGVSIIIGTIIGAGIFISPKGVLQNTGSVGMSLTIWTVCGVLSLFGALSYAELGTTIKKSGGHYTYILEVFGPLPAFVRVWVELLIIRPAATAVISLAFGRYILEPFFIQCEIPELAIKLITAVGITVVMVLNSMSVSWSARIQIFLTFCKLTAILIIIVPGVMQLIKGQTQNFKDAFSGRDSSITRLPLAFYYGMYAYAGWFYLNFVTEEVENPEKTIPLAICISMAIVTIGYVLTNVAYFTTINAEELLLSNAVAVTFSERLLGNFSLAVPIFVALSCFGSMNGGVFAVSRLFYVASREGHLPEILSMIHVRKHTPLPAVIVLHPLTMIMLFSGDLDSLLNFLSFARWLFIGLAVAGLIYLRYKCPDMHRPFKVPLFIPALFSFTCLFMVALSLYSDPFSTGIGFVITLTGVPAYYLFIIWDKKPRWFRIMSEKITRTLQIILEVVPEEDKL

[8] = biological target: T2, Phospholipid hydroperoxide glutathione peroxidase GPX4 (Homo sapiens) (UniProt P36969); assay: Inhibition of GPX4 in human HT-1080 cells at 5 uM incubated for 2 hrs; type: cell-based
T2 sequence (whole entry): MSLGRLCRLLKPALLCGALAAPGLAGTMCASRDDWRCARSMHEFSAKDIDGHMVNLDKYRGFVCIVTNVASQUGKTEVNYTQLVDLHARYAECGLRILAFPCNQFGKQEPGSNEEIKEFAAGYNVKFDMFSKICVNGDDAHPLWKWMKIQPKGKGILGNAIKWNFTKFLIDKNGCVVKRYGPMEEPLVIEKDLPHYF

SMILES	pIC50 [1]	viability at 10 µM [6]	also measured
CN(C)c1ccc(CC(=O)N2CCC(Cn3c(C(F)(F)F)nc4ccccc43)CC2)cc1	5.46		
CS(=O)(=O)c1cc(N2CCC(Cn3c(C(F)(F)F)nc4ccccc43)CC2)ccc1CO	5.13		
CCN(CC)C(=O)c1ccc(N2CCC(Cn3c(C(F)(F)F)nc4ccccc43)CC2)cn1	5.46		
O=S(=O)(c1ccc(N2CCC(Cn3c(C(F)(F)F)nc4ccccc43)CC2)cc1)N1CCOCC1	5.72		microsomal CLint at 1 µM [2]: 118 µL/min/mg; half-life at 1 µM [3]: 11.7 min; half-life at 1 µM [4]: 7.4 min; microsomal CLint at 1 µM [5]: 187 µL/min/mg
CCOc1ccccc1-c1nc2ccccc2n1CC1CCN(c2ccc(S(=O)(=O)N(C)C)cc2)CC1		< 50%	
CN(C)c1ccc(C(=O)N2CCC(Cn3c(C(F)(F)F)nc4ccccc43)CC2)cc1	5.09		
O=C(c1ccc(N2CCC(Cn3c(C(F)(F)F)nc4ccccc43)CC2)cc1)N1CCCC1	5.83		microsomal CLint at 1 µM [2]: 105 µL/min/mg; half-life at 1 µM [3]: 13.2 min; half-life at 1 µM [4]: 8.6 min; microsomal CLint at 1 µM [5]: 164 µL/min/mg
CC(C)(C)c1ccc(N2CCC(Cn3c(C(F)(F)F)nc4ccccc43)CC2)cc1		< 50%	
COC(=O)c1ccc(N2CCC(Cn3c(C(F)(F)F)nc4ccccc43)CC2)cc1S(C)(=O)=O	5.18		
COC(=O)c1ccc(N2CCC(Cn3c(C(F)(F)F)nc4ccccc43)CC2)cc1Cl		< 50%	
FC(F)(F)c1ccc(N2CCC(Cn3c(C(F)(F)F)nc4ccccc43)CC2)cc1Cl		< 50%	
CN(C)S(=O)(=O)c1ccc(N2CCC(Cn3c(-c4ccccc4)nc4ccccc43)CC2)cc1		< 50%	
CC(C)c1ccc(N2CCC(Cn3c(C(F)(F)F)nc4ccccc43)CC2)cc1		< 50%	
FC(F)(F)c1nc2ccccc2n1CC1CCN(c2ccc(N3CCOCC3)c(Cl)c2)CC1		< 50%	
CCOc1ccccc1-n1c(C(C)N2CCN(C(=O)COc3ccc(Cl)cc3)CC2)nc2ccccc2c1=O (stereo not given) [ERASTIN]	5.82		microsomal CLint at 1 µM [2]: 349 µL/min/mg; half-life at 1 µM [3]: 4 min; half-life at 1 µM [4]: 3.5 min; microsomal CLint at 1 µM [5]: 400 µL/min/mg; inhibition [7]: Active
COC(=O)c1ccc([C@H]2c3[nH]c4ccccc4c3C[C@H](C(=O)OC)N2C(=O)CCl)cc1			inhibition [8]: Active

SMILES	pIC50 [1]	viability at 10 µM [6]	also measured
COc1ccc(N2CCC(Cn3c(C(F)(F)F)nc4ccccc43)CC2)cc1Cl		< 50%	
CCN(CC)C(=O)c1ccc(N2CCC(Cn3c(C(F)(F)F)nc4ccccc43)CC2)cc1	5.66		
CC(=O)Nc1ccc(N2CCC(Cn3c(C(F)(F)F)nc4ccccc43)CC2)cc1Cl		< 50%	
CN(C)C(=O)c1ccc(N2CCC(Cn3cnc4ccccc43)CC2)cc1Cl		< 50%	
CN(C)C(=O)c1ccc(N2CCC(Cn3cnc4c(C(F)(F)F)cccc43)CC2)cc1Cl		< 50%	
CN(C)C(=O)c1ccc(N2CCC(Cn3ccc4ccccc43)CC2)cc1Cl		< 50%	
O=C(COc1ccc(Cl)cc1)N1CCC(Cn2c(C(F)(F)F)nc3ccccc32)CC1	5.50		
CCOc1cccc(-c2nc3ccccc3n2CC2CCN(c3ccc(S(=O)(=O)N(C)C)cc3)CC2)c1		< 50%	
CN(C)C(=O)c1cccc(N2CCC(Cn3c(C(F)(F)F)nc4ccccc43)CC2)c1		< 50%	
CCOc1ccccc1Cc1nc2ccccc2n1CC1CCN(c2ccc(S(=O)(=O)N(C)C)cc2)CC1		< 50%	
CN(C)C(=O)c1ccc(N2CCC(Cn3c(C(F)(F)F)nc4ccccc43)CC2)cc1F	5.68		
CN1C(=O)c2ccc(N3CCC(Cn4c(C(F)(F)F)nc5ccccc54)CC3)cc2C1=O		< 50%	
CN(C)C(=O)c1ccc(N2CCC(Cn3c(C(F)(F)F)nc4ccccc43)CC2)cc1	5.51		
CN(C)C(=O)c1ccc(N2CCC(Cn3c(C(F)(F)F)nc4ccccc43)CC2)cc1Cl	5.60		
FC(F)(F)c1nc2ccccc2n1CC1CCN(c2ccc(C3CCCCC3)cc2)CC1		< 50%	
CC(C)Oc1ccc(N2CCC(Cn3c(C(F)(F)F)nc4ccccc43)CC2)cc1Cl		< 50%	
